PMC3914206

Assays:
Assay type in all cases: binding
Details in all cases: Compound Concentration 10 µM
[1] = biological target: T1, panel of 442 kinases (Homo sapiens, UniProt Q06187)
T1 construct: purchased KINOMEscan
Text: (§1) We assessed the selectivity of members of this scaffold using the KINOMEscan methodology across a near comprehensive panel of 442 kinases [[18,27]].

[2] = biological target: T2, panel of 442 kinases (Homo sapiens, UniProt P51956)
T2 construct: purchased KINOMEscan
T2 sequence (P51956 1-506): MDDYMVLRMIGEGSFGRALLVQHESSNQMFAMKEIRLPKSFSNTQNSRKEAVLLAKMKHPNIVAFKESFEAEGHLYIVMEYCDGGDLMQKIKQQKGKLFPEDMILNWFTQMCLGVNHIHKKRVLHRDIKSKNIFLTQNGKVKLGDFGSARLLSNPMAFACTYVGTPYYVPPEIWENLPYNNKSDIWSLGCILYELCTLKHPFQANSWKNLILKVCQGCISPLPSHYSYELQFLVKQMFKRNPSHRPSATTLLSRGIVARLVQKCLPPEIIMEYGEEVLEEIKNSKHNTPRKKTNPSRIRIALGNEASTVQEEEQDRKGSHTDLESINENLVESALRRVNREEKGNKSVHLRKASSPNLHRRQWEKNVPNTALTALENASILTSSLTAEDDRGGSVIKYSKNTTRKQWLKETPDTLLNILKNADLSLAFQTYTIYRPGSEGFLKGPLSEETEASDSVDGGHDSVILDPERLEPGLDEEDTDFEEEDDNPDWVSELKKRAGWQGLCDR
Text: as §1

[3] = biological target: T3, panel of 442 kinases (Mycobacterium tuberculosis, UniProt P9WI81)
T3 construct: purchased KINOMEscan
T3 sequence (P9WI81 whole entry): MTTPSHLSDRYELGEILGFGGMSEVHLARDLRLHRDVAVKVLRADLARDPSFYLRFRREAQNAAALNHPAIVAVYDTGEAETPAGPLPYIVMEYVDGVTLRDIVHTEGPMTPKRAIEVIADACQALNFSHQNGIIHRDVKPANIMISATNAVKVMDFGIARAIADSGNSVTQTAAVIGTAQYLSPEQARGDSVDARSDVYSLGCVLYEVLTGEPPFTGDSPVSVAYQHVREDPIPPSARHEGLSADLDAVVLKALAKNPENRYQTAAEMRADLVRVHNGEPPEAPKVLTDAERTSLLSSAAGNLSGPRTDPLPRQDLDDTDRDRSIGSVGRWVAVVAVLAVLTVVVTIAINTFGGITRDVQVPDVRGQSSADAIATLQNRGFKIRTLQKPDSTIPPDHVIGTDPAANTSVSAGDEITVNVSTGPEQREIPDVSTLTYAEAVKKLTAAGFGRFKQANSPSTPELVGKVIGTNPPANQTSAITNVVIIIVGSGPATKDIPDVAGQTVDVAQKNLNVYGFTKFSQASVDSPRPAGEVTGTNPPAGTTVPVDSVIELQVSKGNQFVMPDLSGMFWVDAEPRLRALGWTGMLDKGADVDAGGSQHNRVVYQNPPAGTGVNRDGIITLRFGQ
Text: as §1

T1 sequence (Q06187 whole entry): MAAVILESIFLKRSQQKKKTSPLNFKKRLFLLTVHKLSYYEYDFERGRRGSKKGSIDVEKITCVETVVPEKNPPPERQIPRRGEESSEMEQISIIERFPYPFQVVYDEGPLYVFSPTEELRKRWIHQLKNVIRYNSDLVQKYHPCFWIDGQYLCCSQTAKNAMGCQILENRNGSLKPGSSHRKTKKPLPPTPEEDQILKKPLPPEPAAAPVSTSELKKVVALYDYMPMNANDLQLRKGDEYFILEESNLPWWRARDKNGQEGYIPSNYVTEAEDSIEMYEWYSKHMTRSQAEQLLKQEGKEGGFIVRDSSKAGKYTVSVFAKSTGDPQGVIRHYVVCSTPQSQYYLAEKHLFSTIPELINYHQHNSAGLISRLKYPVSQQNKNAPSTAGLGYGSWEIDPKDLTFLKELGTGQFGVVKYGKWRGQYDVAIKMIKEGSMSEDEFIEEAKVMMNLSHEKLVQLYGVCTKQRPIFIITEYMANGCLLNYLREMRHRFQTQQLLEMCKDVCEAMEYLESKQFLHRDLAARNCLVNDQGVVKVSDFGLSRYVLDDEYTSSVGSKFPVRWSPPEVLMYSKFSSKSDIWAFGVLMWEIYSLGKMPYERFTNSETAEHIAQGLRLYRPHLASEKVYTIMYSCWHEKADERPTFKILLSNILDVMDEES

COc1cc(C(=O)N2CCC(N3CCN(C)CC3)CC2)ccc1Nc1ncc2c(n1)N(C1CCCC1)c1ccccc1C(=O)N2C [Compound 25, 11-cyclopentyl-2-((2-methoxy-4-(4-(4-methylpiperazin-1-yl)piperidine-1-carbonyl)phenyl)amino)-5-methyl-5H-benzo[e]pyrimido[5,4-b][1,4]diazepin-6(11H)-one]
KINOMEscan: BTK [1]: 98
KINOMEscan: NEK3 [2]: 100
KINOMEscan: PKNB(M.tuberculosis) [3]: 100

CCOc1cc(C(=O)N2CCC(N3CCN(C)CC3)CC2)ccc1Nc1ncc2c(n1)N(C1CCCC1)c1ccccc1C(=O)N2C [Compound 26]
KINOMEscan: BTK [1]: 100
KINOMEscan: NEK3 [2]: 83
KINOMEscan: PKNB(M.tuberculosis) [3]: 96

COc1cc(C(=O)N2CCC(N3CCN(C)CC3)CC2)ccc1Nc1ncc2c(n1)N1CCc3cccc(c31)C(=O)N2C [Compound 24]
KINOMEscan: PKNB(M.tuberculosis) [3]: 98

COc1cc(C(=O)N2CCC(N3CCN(C)CC3)CC2)ccc1Nc1ncc2c(n1)N(C)c1ccccc1C(=O)N2C [15 (LRRK2-IN-1)]
KINOMEscan: BTK [1]: 100
KINOMEscan: NEK3 [2]: 100
KINOMEscan: PKNB(M.tuberculosis) [3]: 100
